Here are results for 17 compounds from patent publication US4895842A, “Phenylalanine derivative and proteinase inhibitor” (Shosuke Okamoto, priority 1985, dated 1990).

Experiment [1] deals with T1, human plasmin (Homo sapiens, UniProt P00747). Description: biochemical. The method, then:
An inhibitor sample is dissolved in a 0.05M Tris-hydrochloric acid buffer solution (pH=7.4) to make the total volume of 400 μl. […] Then, 50 μl of a 0.2 casein unit/ml human plasmin is added and the mixture is incubated at a temperature of 37° C. for 4 minutes. Thereafter, the reaction is stopped by adding 50 μl of 50% acetic acid.
Thus, the concentration I50 (μmol) of the inhibitor sample, at which the absorbance is one half (i.e., 1/2) of that obtained in the absence of the inhibitor, is determined.

The target of experiment [2] is T1, human plasmin. Nature of the experiment: Antiplasmin activity: inhibition of fibrin decomposition. Type of experiment: biochemical. The procedure: (i) Determination of inhibition activity for fibrin decomposition
An inhibitor sample is dissolved in a 0.18M borate-physiological salt buffer solution (pH=7.4) to make the total volume to 600 μl. To this buffer solution, 200 μl of a 0.2% bovine fibrinogen, 100 μl of a 0.3 casein unit/ml human plasmin solution, and 100 μl of a 50 unit/ml bovine thrombin solution, all dissolved in the above-mentioned buffer, are added at a temperature of 37° C. in a constant temperature bath. Then, the dissolution time of the fibrin mass formed above is determined.

In experiment [3] the target is T2, bovine thrombin (Bos taurus, UniProt P00735). Nature of the experiment: Antithrombin activity: inhibition of S-2238 decomposition. Conditions: Table 2; S-2238 substrate, pH 8.3, 37° C.; read-out: Thrombin S-2238 (I50). Type of experiment: biochemical. The method, then:
(ii) Determination of inhibition activity for S-2238 decomposition
An inhibitor sample is dissolved in a 0.05M Tris-hydrochloric acid buffer solution (pH=8.3) to make a total volume of 400 μl. To this solution, 50 μl of a 0.2 mM S-2238 solution is added and the mixture is incubated at a temperature of 37° C. for 5 minutes in a constant temperature bath. Then, 50 μl of a 0.2 unit/ml bovine thrombin solution is added thereto and the absorbance, at 405 nm, of the p-nitroaniline formed per minute is determined at a temperature of 37° C. by using the so-called initial velocity method. Thus, the concentration I50 (μmol) of the inhibitor sample at which the absorbance is one half (i.e., 1/2) of that obtained in the absence of the inhibitor sample, is determined.

The target in experiment [4] is T2, bovine thrombin. Description: Antithrombin activity: inhibition of fibrin formation from fibrinogen. Type of experiment: biochemical. The method, then: (i) Determination of inhibition activity against fibrin formation
An inhibitor sample is dissolved in a 0.18M borate-physiological salt buffer solution (pH=7.4) to make the total volume to 500 μl. To this solution, 400 μl of a 0.2% bovine fibrinogen solution and 100 μl of a 4 unit/ml bovine thrombin solution are added at a temperature of 37° C. in a constant temperature bath. Thus, a coagulation time is determined. The inhibitor concentration I50 (μmol), at which the coagulation time obtained in the absence of the inhibitor is extended twice, is determined.

The target of the next experiment is human plasma kallikrein (Homo sapiens, UniProt P03952). Nature of the experiment: Anti-plasma kallikrein activity: inhibition of S-2302 decomposition. Type of experiment: biochemical. Conditions: Table 2; S-2302 substrate, pH 7.8, 37° C.; read-out: Plasma Kallikrein S-2302 (I50).
Another experiment concerns the target human urokinase (Homo sapiens, UniProt P00749). Description: biochemical. The note with it: Table 2; S-2444 substrate, pH 8.8, 37° C.; read-out: Urokinase S-2444 (I50). The method, then: Determination of inhibition activity for S-2444 decomposition
An inhibitor sample is dissolved in a 0.05M Tris-hydrochloric acid buffer solution (pH=8.8) to make the total volume to 400 μl. To this solution, 50 μl of a 1 mM S-2444 solution is added and the mixture is incubated at a temperature of 37° C. for 5 minutes in a constant temperature bath. Then, 50 μl of a 500 unit/ml human urokinase is added and the mixture is incubated at a temperature of 37° C. for 5 minutes. Thereafter, 50 μl of 50% acetic acid is added to terminate the reaction. The absorbance of the p-nitroaniline formed in the reaction mixture is measured at 405 nm. Thus, the concentration I50 (μmol) of the inhibitor sample, at which the absorbance is one half (i.e., 1/2) of that obtained in the absence of the inhibitor sample, is determined.

A further experiment addresses T3, bovine trypsin (Bos taurus, UniProt P00760).
T3 sequence (P00760 24-246): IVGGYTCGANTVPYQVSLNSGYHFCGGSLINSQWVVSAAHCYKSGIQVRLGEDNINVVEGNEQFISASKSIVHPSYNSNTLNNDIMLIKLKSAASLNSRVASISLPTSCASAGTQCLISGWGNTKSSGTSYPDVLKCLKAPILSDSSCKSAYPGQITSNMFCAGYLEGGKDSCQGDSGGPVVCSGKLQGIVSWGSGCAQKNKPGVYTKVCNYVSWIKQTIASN
Description: Antitrypsin activity: inhibition of S-2238 decomposition. Type of experiment: biochemical. Conditions: Table 2; S-2238 substrate, pH 8.1, 37° C.; read-out: Trypsin S-2238 (I50).

[5] abbreviates: Table 2, concentration at which fibrin dissolution time is extended twice, pH 7.4, 37° C., read-out: Plasmin Fibrin (I50).

pIC50: −log10 of the molar value. Structures can show the parent of a compound that is named as a salt.

T1 sequence (P00747 581-810 limits assumed): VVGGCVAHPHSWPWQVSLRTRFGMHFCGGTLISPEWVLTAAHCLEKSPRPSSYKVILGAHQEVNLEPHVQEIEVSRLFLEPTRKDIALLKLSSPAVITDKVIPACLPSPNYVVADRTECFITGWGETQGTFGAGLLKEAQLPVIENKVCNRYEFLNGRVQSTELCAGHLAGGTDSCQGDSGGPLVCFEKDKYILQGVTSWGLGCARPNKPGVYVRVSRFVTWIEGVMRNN
T1 sequence (P00747 97-580 partner limits assumed): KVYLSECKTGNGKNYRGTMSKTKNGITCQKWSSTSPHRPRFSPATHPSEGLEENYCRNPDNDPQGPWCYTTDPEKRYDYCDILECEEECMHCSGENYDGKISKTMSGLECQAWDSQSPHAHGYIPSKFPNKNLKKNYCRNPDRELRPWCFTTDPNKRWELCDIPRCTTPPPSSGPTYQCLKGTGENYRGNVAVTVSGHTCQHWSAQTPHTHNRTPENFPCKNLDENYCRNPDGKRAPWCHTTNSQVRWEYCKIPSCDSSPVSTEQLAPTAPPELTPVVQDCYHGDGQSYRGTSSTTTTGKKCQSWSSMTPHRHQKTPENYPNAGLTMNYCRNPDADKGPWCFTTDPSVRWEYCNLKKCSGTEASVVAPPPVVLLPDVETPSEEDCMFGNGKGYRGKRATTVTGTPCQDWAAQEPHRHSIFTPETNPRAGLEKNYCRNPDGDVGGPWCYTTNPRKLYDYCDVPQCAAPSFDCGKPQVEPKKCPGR
Sequence of human plasma kallikrein (P03952 391-638 limits assumed): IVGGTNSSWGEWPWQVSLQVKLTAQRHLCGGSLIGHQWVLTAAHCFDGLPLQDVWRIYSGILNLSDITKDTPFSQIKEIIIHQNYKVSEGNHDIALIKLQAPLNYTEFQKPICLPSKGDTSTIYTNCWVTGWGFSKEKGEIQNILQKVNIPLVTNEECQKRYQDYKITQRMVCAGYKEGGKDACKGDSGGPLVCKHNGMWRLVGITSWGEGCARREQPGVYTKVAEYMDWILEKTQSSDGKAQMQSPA
Sequence of human plasma kallikrein (P03952 20-390 partner limits assumed): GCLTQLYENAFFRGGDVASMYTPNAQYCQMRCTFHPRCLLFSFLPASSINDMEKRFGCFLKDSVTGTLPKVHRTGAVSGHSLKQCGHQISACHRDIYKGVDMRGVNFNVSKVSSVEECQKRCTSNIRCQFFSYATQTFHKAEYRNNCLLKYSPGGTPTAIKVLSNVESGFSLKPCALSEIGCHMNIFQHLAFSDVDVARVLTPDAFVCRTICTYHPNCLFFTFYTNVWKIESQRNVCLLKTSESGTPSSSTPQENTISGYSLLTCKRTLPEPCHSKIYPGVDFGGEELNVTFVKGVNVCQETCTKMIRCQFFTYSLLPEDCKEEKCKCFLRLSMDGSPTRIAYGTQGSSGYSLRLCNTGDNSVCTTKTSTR
Description for bovine trypsin: Determination of inhibition activity against S-2238 decomposition
An inhibitor sample is dissolved in a 0.05M Tris-imidazole buffer solution (pH=8.1) and 125 μl of a 1 mM S-2238 solution is added to make the total volume to 1.20 ml. The mixture is incubated at a temperature of 37° C. for 5 minutes in a constant temperature bath. To this mixture, 0.05 ml of bovine trypsin is added and the absorbance, at 405 nm, of the p-nitroaniline formed per minute is determined at a temperature of 37° C. by using the so-called initial velocity method. Thus, the concentration I50 (μmol) of the inhibitor sample, at which the absorbance is one half (i.e., 1/2) of that obtained in the absence of the inhibitor sample, is determined.
Description for human plasma kallikrein: Determination of inhibition activity for S-2302 decomposition
An inhibitor sample is dissolved in a 0.05M Tris-hydrochloric acid buffer solution (pH=7.8) to make the total volume to 400 μl. To this solution, 50 μl of a 2 mM S-2302 solution is added and the mixture is incubated at a temperature of 37° C. for 5 minutes in a constant temperature bath. Then, 50 μl of a 0.12 unit/ml human plasma kallikrein is added and the mixture is incubated at a temperature of 37° C. for 5 minutes. Thereafter, 50 μl of 50% acetic acid is added to terminate the reaction. The absorbance of the p-nitroaniline formed in the reaction mixture is measured at 405 nm. Thus, the concentration I50 (μmol) of the inhibitor sample, at which the absorbance is one half (i.e., 1/2) of that obtained in the absence of the inhibitor sample, is determined.

Take `NC[C@H]1CC[C@H](C(=O)NC(Cc2ccc([N+](=O)[O-])cc2)C(=O)Nc2ccc(C(=O)c3ccccc3)cc2)CC1` (mixture of isomers) [Compound No. 31, N-(trans-4-aminomethylcyclohexylcarbonyl)-4-nitro-D,L-phenylalanine 4-benzoylanilide hydrochloride]: the pIC50 against human plasmin [1] was 4.85; on human plasmin [2], 5.48; on bovine thrombin [3], less than 4.00; against bovine thrombin [4] it was less than 4.00; on human plasma kallikrein, 5.22; at human urokinase it was 5.48.
`CC(=O)c1ccc(NC(=O)[C@H](Cc2ccc(OCc3ccc(Cl)cc3)cc2)NC(=O)[C@H]2CC[C@H](CN)CC2)cc1` [Compound No. 5, N-(trans-4-aminomethylcyclohexylcarbonyl)-4-(4-chlorobenzyloxy)-L-phenylalanine 4-acetylanilide]: the pIC50 at human plasmin [1] (read-out: Plasmin S-2251 (I50)) is 6.05; on human plasmin [2] (setting [5]), 6.41; at bovine trypsin it was 6.08; at human plasma kallikrein, 6.34; on human urokinase, 4.60.
Turning to `CC(=O)c1ccc(NC(=O)[C@H](Cc2ccc(OCc3ccc(F)cc3)cc2)NC(=O)[C@H]2CC[C@H](CN)CC2)cc1` [Compound No. 12], the pIC50 on human plasmin [1] (read-out: Plasmin S-2251 (I50)) was 6.10; on human plasmin [2] (setting [5]) it was 6.39; on human plasma kallikrein it was 6.08; on human urokinase it was 4.96.
For `NC[C@H]1CC[C@H](C(=O)N[C@@H](Cc2ccc(OCc3ccccc3)cc2)C(=O)Nc2cccnc2)CC1` [Compound No. 16, N-(trans-4-aminomethylcyclohexylcarbonyl)-4-benzyloxy-L-phenylalanine 3-pyridylamide dihydrochloride], the pIC50 on bovine thrombin [3] was less than 3.40; at bovine thrombin [4] it was less than 3.30.
`NCc1ccc(C(=O)N[C@@H](Cc2ccc(OCc3ccccc3)cc2)C(=O)NC2CCCCC2)cc1` [Compound No. 114, N-(4-aminomethylbenzoyl)-4-benzyloxy-L-phenylalanine cyclohexylamide hydrochloride]: the pIC50 was 5.49 on human plasmin [1] (read-out: Plasmin S-2251 (I50)); 5.85 on human plasmin [2] (setting [5]); 5.02 on bovine trypsin; 4.40 at human plasma kallikrein; less than 4.00 on human urokinase.
Take `CC(=O)c1ccc(NC(=O)[C@H](Cc2ccc(OCc3ccc(Br)cc3)cc2)NC(=O)[C@H]2CC[C@H](CN)CC2)cc1` [compound 17]: the pIC50 at human plasmin [1] (read-out: Plasmin S-2251 (I50)) was 5.82; at human plasmin [2] (setting [5]), 6.55; on human plasma kallikrein, 6.25; on human urokinase, 4.64.
The like results for `NC[C@H]1CC[C@H](C(=O)N[C@@H](Cc2ccc(OCc3ccccc3)cc2)C(=O)Nc2ccc(C(=O)c3ccccc3)cc2)CC1` [compound 19] were, in that order, 5.89, 6.55, 5.92 and 4.72.
Turning to `CC(=O)c1ccc(NC(=O)[C@H](Cc2ccc(OCc3ccc(Cl)c(Cl)c3)cc2)NC(=O)[C@H]2CC[C@H](CN)CC2)cc1` [compound 45], the pIC50 at human plasmin [1] (read-out: Plasmin S-2251 (I50)) was 6.24; at human plasmin [2] (setting [5]) it was 7.04; on bovine trypsin, 6.08; at human plasma kallikrein, 6.34; at human urokinase, 4.15.
In the case of `Cc1ccc(NC(=O)[C@H](Cc2ccc(OCc3ccccc3)cc2)NC(=O)c2ccc(CN)cc2)cc1` [compound 63], the pIC50 on human plasmin [1] (read-out: Plasmin S-2251 (I50)) was 5.25; at human plasmin [2] (setting [5]), 5.85; on bovine thrombin [4], less than 4.30; at bovine trypsin, 5.00; at human plasma kallikrein, 4.62; on human urokinase, less than 4.00.
Regarding `Cc1ccc(NC(=O)[C@H](Cc2ccc(OCc3ccccc3)cc2)NC(=O)c2ccc(CN)cc2)cc1C` [compound 65], the pIC50 was 5.54 at human plasmin [1] (read-out: Plasmin S-2251 (I50)); 6.00 on human plasmin [2] (setting [5]); less than 4.30 against bovine thrombin [4]; 5.30 at bovine trypsin; 4.66 at human plasma kallikrein; less than 3.70 at human urokinase.
On to `NC[C@H]1CC[C@H](C(=O)N[C@@H](Cc2ccc(OCc3cccc(Cl)c3)cc2)C(=O)Nc2ccc(C(=O)c3ccccc3)cc2)CC1` [compound 67], for which the pIC50 on human plasmin [1] (read-out: Plasmin S-2251 (I50)) was 5.96; at human plasmin [2] (setting [5]), 6.85; against bovine thrombin [4], less than 4.70; on bovine trypsin it was 6.36; on human plasma kallikrein it was 5.92; on human urokinase, 4.40.
For `CC1CCC(NC(=O)C(Cc2ccc(OCc3cccc(Cl)c3)cc2)NC(=O)c2ccc(CN)cc2)CC1C` (stereo not drawn) [compound 103], the pIC50 on human plasmin [1] (read-out: Plasmin S-2251 (I50)) is 6.11; at human plasmin [2] (setting [5]), 6.92; at bovine trypsin, 5.92; at human plasma kallikrein, 4.74; at human urokinase it was less than 4.00.
For the compound `CC1CCC(NC(=O)C(Cc2ccc(OCc3ccc(F)cc3)cc2)NC(=O)c2ccc(CN)cc2)CC1C` (stereo not drawn) [compound 106], the pIC50 is 5.85 on human plasmin [1] (read-out: Plasmin S-2251 (I50)); 6.27 on human plasmin [2] (setting [5]); less than 4.30 against bovine thrombin [4]; 5.52 at bovine trypsin; 4.72 at human plasma kallikrein; less than 3.82 on human urokinase.
Take `NCc1ccc(C(=O)NC(Cc2ccc(OCc3ccccc3)cc2)C(=O)NCc2ccc(F)cc2)cc1` (stereo not drawn) [compound 113]: the pIC50 at human plasmin [1] (read-out: Plasmin S-2251 (I50)) is 5.08; on human plasmin [2] (setting [5]), 5.77; at bovine thrombin [4], less than 4.30; on bovine trypsin, 4.74; on human plasma kallikrein, less than 4.60; on human urokinase, less than 4.70.
Take `CC(=O)c1ccc(NC(=O)[C@H](Cc2ccc(OCc3cc(Cl)ccc3Cl)cc2)NC(=O)[C@H]2CC[C@H](CN)CC2)cc1` [compound 125]: the pIC50 on human plasmin [1] (read-out: Plasmin S-2251 (I50)) is 6.31; on human plasmin [2] (setting [5]), 6.89; at bovine trypsin it was 6.10; at human plasma kallikrein, 6.42; on human urokinase, 4.33.
For the compound `N=C(N)c1ccc(NC(=O)[C@H](Cc2ccc(OCc3ccccc3)cc2)NC(=O)[C@H]2CC[C@H](CN)CC2)cc1` [compound 126], the pIC50 on human plasmin [1] (read-out: Plasmin S-2251 (I50)) was 5.82; at human plasmin [2] (setting [5]) it was 6.08; at bovine thrombin [4], less than 3.70; at bovine trypsin it was 6.35; on human plasma kallikrein, 5.46; at human urokinase, 5.20.
With `CC(=O)c1ccc(NC(=O)[C@H](Cc2ccc(OC(=O)OCc3ccccc3Br)cc2)NC(=O)[C@H]2CC[C@H](CN)CC2)cc1` [compound 144], the pIC50 on human plasmin [1] (read-out: Plasmin S-2251 (I50)) was 6.64; at human plasmin [2] (setting [5]) it was 7.29; on bovine thrombin [4] it was less than 4.30; at bovine trypsin it was 6.02; at human plasma kallikrein, 6.43; on human urokinase it was 4.37.
